# Like-named read-outs stand apart in the source and are kept apart here.
# How the values were obtained:
# [1] = Fraction unbound in 20-fold diluted brain homogenate, equilibrium dialysis; settings: for fraction unbound at 5 h, 1 μM: Göttingen, minipig, 20-fold diluted brain homogenate, pH 7.4; for Predicted fu (%) Brain (D = 20): calculated with Eq. 2 from fu measured in 100% matrices (ref 20), dilution factor 20
# P-gp (human MDR1) [2] = test: Equilibrium distribution study (in vitro Kp,brain / Kp,uu,brain) across MDCKII-MDR1 cells, BSA apical, brain homogenate basolateral, Uni-L and Bi-L; settings: dog; for Kp at 29 h, 1 μM: brain homogenate/BSA ratio
# P-gp (human MDR1) [3] = test: in vitro; settings: dog; for Papp B→A at 60 min, 0.5 μM / efflux ratio at 60 min, 0.5 μM / Papp A→B at 60 min, 0.5 μM: MDCK-MDR1, pH 7.4
# [4] = cited from earlier work
# [5] = target: T1, Bovine Serum Albumin (BSA) (Bos taurus, UniProt P02769); test: Fraction unbound in 35 μM BSA, equilibrium dialysis; settings: for fraction unbound at 5 h, 1 μM: bovine, 35 μM BSA; for Predicted fu (%) BSA 35 μM (D = 20): calculated with Eq. 2 from fu measured in 100% matrices (ref 20), dilution factor 20
# T1 sequence (P02769 25-607): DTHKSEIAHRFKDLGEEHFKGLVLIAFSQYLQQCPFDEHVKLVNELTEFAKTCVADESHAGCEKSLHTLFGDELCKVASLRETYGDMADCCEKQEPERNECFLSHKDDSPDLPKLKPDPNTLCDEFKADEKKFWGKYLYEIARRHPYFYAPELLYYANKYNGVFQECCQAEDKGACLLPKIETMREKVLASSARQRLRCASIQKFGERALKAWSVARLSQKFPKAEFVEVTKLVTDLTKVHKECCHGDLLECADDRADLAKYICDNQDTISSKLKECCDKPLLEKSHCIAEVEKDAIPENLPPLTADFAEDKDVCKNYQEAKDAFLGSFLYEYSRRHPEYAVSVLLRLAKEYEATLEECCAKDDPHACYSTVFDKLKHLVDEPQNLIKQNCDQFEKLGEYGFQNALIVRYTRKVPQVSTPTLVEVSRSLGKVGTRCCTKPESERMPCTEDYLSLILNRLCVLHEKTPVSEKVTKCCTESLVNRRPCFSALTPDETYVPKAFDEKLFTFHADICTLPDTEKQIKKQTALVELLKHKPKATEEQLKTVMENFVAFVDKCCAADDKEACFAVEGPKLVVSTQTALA
# MDCKII-MDR1 cells = settings: dog, 29 h, 1 μM, pH 7.5
# P-gp (human MDR1) [6] = test: in vitro; settings: dog
# [7] = brain homogenate
# in vitro = settings: Göttingen, minipig, brain homogenate, pH 7.4
# [8] = target: T1, Bovine Serum Albumin (BSA); test: in vitro; settings: isolated protein
# [9] = target: T1, Bovine Serum Albumin (BSA); settings: isolated protein
# [10] = MDCK-MDR1, pH 7.5, in vitro determined Kp,brain Bi-L, Bi-L (compound loaded both sides), 29 h
# [11] = MDCK-MDR1, pH 7.5, in vitro determined Kp,brain Uni-L, Uni-L (compound loaded apically in BSA), 29 h
# [12] = pH 7.5, Recovery Bi-L, mass balance Eq. 7, Bi-L, 29 h, % printed
# [13] = pH 7.5, Recovery Uni-L, mass balance Eq. 6, Uni-L, 29 h, % printed
# [14] = pH 7.5, assay recovery, equilibrium distribution experiment, setup (Uni-L/Bi-L) not given
Structure (SMILES),"fraction unbound at 5 h, 1 μM [1]",Predicted fu (%) Brain (D = 20) [1] [%],"Kp at 29 h, 1 μM (P-gp (human MDR1) [2]; [10])","Kp at 29 h, 1 μM (P-gp (human MDR1) [2]; [11])","recovery at 29 h, 1 μM (P-gp (human MDR1) [2]; [12]) [%]","recovery at 29 h, 1 μM (P-gp (human MDR1) [2]; [13]) [%]","Papp B→A at 60 min, 0.5 μM (P-gp (human MDR1) [3]) [×10⁻⁶ cm/s]","efflux ratio at 60 min, 0.5 μM (P-gp (human MDR1) [3])","Kp,uu,brain in vivo ([4]; Göttingen minipig)","fraction unbound at 5 h, 1 μM [5]",Predicted fu (%) BSA 35 μM (D = 20) [5] [%],further results
O=C(c1ccc(F)cc1)C1CCN(CCn2c(=S)[nH]c3ccccc3c2=O)CC1 [Altanserin],0.229 ± 0.014,22.1,1.49,1.48,17,18,3.4 ± 0.3,1.1,0.85,0.451 ± 0.035,26.8,"recovery at 29 h, 1 μM (P-gp (human MDR1) [2]; [14]): ~20%"
"Cc1cc(=O)n(-c2ccccc2)n1C [Antipyrine, antipyrine]",,,,,,,48 ± 3,1.2,,,,"Kp,uu,brain in Vitro Uni-L (Det. fu) (MDCKII-MDR1 cells): 1.05; Kp,uu,brain in Vitro Uni-L (Pre.fu) (MDCKII-MDR1 cells): 1.24; Kp at 29 h, 1 μM (P-gp (human MDR1) [6]; MDCK-MDR1, pH 7.5, in vitro determined Kp,brain Bi-L): 1.2; Kp at 29 h, 1 μM (P-gp (human MDR1) [6]; MDCK-MDR1, pH 7.5, in vitro determined Kp,brain Uni-L): 1.2; recovery at 29 h, 1 μM (P-gp (human MDR1) [6]; pH 7.5, Recovery Bi-L): 77%; recovery at 29 h, 1 μM (P-gp (human MDR1) [6]; pH 7.5, Recovery Uni-L): 77%; Predicted fu (%) Brain (D = 20) [7]: > 100%; fraction unbound at 5 h, 1 μM (in vitro): 0.843 ± 0.042; fraction unbound at 5 h, 1 μM [8]: > 1; Kp,uu,brain in vivo ([4]; minipig, in vivo): 0.80; Predicted fu (%) BSA 35 μM (D = 20) [9]: 99.9%"
"O=C1CC2(CCCC2)CC(=O)N1CCCCN1CCN(c2ncccn2)CC1 [Buspirone, buspirone]",,,,,71,76,20 ± 3,,,,,
"CN/C(=N/CCSCc1nc[nH]c1C)NC#N [Cimetidine, cimetidine]",0.938 ± 0.05,95.6,0.6,0.19,78,73,2.5 ± 0.2,,0.02,> 1,99.2,"Papp A→B at 60 min, 0.5 μM (P-gp (human MDR1) [3]): < 1 ×10⁻⁶ cm/s"
"CN(C)CCCC1(c2ccc(F)cc2)OCc2cc(C#N)ccc21 (stereo not shown) [Citalopram, citalopram]",0.513 ± 0.066,47.9,1.5,1.5,67,73,7.7 ± 0.3,1.7,0.90,0.973 ± 0.027,96.0,
"CN(C)CCC=C1c2ccccc2COc2ccccc21 [Doxepin, doxepin]",0.248 ± 0.05,33.0,2.2,2.2,54,59,2.2 ± 0.1,1.1,,0.922 ± 0.029,87.1,"recovery at 29 h, 1 μM (P-gp (human MDR1) [2]; [14]): ~50%; Papp A→B at 60 min, 0.5 μM (P-gp (human MDR1) [3]): 2 ± 0.1 ×10⁻⁶ cm/s; recovery at 60 min, 0.5 μM (P-gp (human MDR1) [3]; MDCKII-MDR1 cell monolayers (transfected with human MDR1), pH 7.4): ~50%"
"CNCCC(Oc1ccc(C(F)(F)F)cc1)c1ccccc1 (stereo not shown) [Fluoxetine, fluoxetine]",0.052 ± 0.005,5.7,,,,,,,,0.66 ± 0.032,70.6,

# Source: publication PMC10809502, “Application of a new MDCKII-MDR1 cell model to measure the extent of drug distribution in vitro at equilibrium for prediction of in vivo unbound brain-to-plasma drug distribution” (Fluids and Barriers of the CNS, 2024)
